Tests used:
Format in all cases: in vivo
[1] = system: redroot pigweed (Amaranthus retroflexus); experiment: Test A pre/postemergence
Procedure, shortened: (§1)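 Visual injury scored 0–100 (0 = no effect, 100 = complete control) against untreated controls after about ten days in the greenhouse. Compounds, formulated in non-phytotoxic solvent plus surfactant, were applied preemergence as a directed soil spray and postemergence at the 1- to 2-leaf stage (2–10 cm).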

[2] = system: velvetleaf (Abutilon theophrasti); experiment: Test A pre/postemergence
Procedure, shortened: as §1

[3] = system: barnyardgrass (Echinochloa crus-galli); experiment: Test A pre/postemergence
Procedure, shortened: as §1

[4] = system: giant foxtail (Setaria faberi); experiment: Test A pre/postemergence
Procedure, shortened: as §1

[5] = system: crabgrass (Digitaria sanguinalis); experiment: Test A pre/postemergence
Procedure, shortened: as §1

[6] = system: morningglory (Ipomoea spp.); experiment: Test A pre/postemergence
Procedure, shortened: as §1

[7] = system: water seeded rice seedlings (Oryza sativa cv. ‘Japonica-M202’); experiment: Test E flooded paddy water application; conditions: Flood, 21 days, scale 0 to 100 (0 no effect, 100 complete control)
Excerpt: (§2) Three plastic pots (ca. 16-cm diameter) per rate were partially filled with sterilized Tama silt loam soil comprising a 35:50:15 ratio of sand, silt and clay and 2.6% organic matter. Separate plantings for each of the three pots were as follows. Seeds from the U.S. of ducksalad (Heteranthera limosa), smallflower umbrella sedge (Cyperus difformis) and purple redstem (Ammannia coccinea), were planted into one 16-cm pot for each rate. Seeds from the U.S. of rice flatsedge (Cyperus iria), bearded (brdd.) sprangletop (Leptochloa fusca ssp. fascicularis), one stand of 9 or 10 water seeded rice seedlings (Oryza sativa cv. ‘Japonica-M202’), and one stand of 6 transplanted rice seedlings (Oryza sativa cv. ‘Japonica-M202’) were planted into one 16-cm pot for each rate. Seeds from the U.S. of barnyardgrass (Echinochloa crus-galli), late watergrass (Echinochloa oryzicola), early watergrass (Echinochloa oryzoides) and junglerice (Echinochloa colona) were planted into one 16-cm pot for each rate. Plantings were sequential so that crop and weed species were at the 2.0 to 2.5-leaf stage at time of treatment.
(§3) Potted plants were grown in a greenhouse with day/night temperature settings of 29.5/26.7° C., and supplemental balanced lighting was provided to maintain a 16-hour photoperiod. Test pots were maintained in the greenhouse until test completion.
(§4) At time of treatment, test pots were flooded to 3 cm above the soil surface, treated by application of test compounds directly to the paddy water, and then maintained at that water depth for the duration of the test. Effects of treatments on rice and weeds were visually evaluated by comparison to untreated controls after 21 days. Plant response ratings, summarized in Table E, are based on a scale of 0 to 100 where 0 is no effect and 100 is complete control. A dash (-) response means no test result.

[8] = system: late watergrass (Echinochloa oryzicola); experiment: Test E flooded paddy water application; conditions: Flood, 21 days, scale 0 to 100 (0 no effect, 100 complete control)
Excerpt: as §2, §3, §4

[9] = system: early watergrass (Echinochloa oryzoides); experiment: Test E flooded paddy water application; conditions: Flood, 21 days, scale 0 to 100 (0 no effect, 100 complete control)
Excerpt: as §2, §3, §4

[10] = system: junglerice (Echinochloa colona); experiment: Test E flooded paddy water application; conditions: Flood, 21 days, scale 0 to 100 (0 no effect, 100 complete control)
Excerpt: as §2, §3, §4

[11] = system: transplanted rice seedlings (Oryza sativa cv. ‘Japonica-M202’); experiment: Test E flooded paddy water application; conditions: Flood, 21 days, scale 0 to 100 (0 no effect, 100 complete control)
Excerpt: as §2, §3, §4

[12] = system: purple redstem (Ammannia coccinea); experiment: Test E flooded paddy water application; conditions: Flood, 21 days, scale 0 to 100 (0 no effect, 100 complete control)
Excerpt: as §2, §3, §4

[13] = system: barnyardgrass (Echinochloa crus-galli); experiment: Test E flooded paddy water application; conditions: Flood, 21 days, scale 0 to 100 (0 no effect, 100 complete control)
Excerpt: as §2, §3, §4

[14] = system: bearded (brdd.) sprangletop (Leptochloa fusca ssp. fascicularis); experiment: Test E flooded paddy water application; conditions: Flood, 21 days, scale 0 to 100 (0 no effect, 100 complete control)
Excerpt: as §2, §3, §4

[15] = system: smallflower umbrella sedge (Cyperus difformis); experiment: Test E flooded paddy water application; conditions: Flood, 21 days, scale 0 to 100 (0 no effect, 100 complete control)
Excerpt: as §2, §3, §4

[16] = system: ducksalad (Heteranthera limosa); experiment: Test E flooded paddy water application; conditions: Flood, 21 days, scale 0 to 100 (0 no effect, 100 complete control)
Excerpt: as §2, §3, §4

[17] = system: rice flatsedge (Cyperus iria); experiment: Test E flooded paddy water application; conditions: Flood, 21 days, scale 0 to 100 (0 no effect, 100 complete control)
Excerpt: as §2, §3, §4

[18] = Postemergence, 125 g ai/ha, 0 to 100 scale (0 no effect, 100 complete control)
[19] = Postemergence, 500 g ai/ha, 0 to 100 scale (0 no effect, 100 complete control)
[20] = Preemergence, 125 g ai/ha, 0 to 100 scale where 0 is no effect and 100 is complete control, approximately ten days
[21] = Preemergence, 500 g ai/ha, 0 to 100 scale where 0 is no effect and 100 is complete control, approximately ten days

CCOC(=O)c1nc(-c2ccc(Cl)cc2F)nc(N)c1Br [Compound 69] was tested, and the “Plant response rating, Pigweed” value [1, 18] was 90, the “Plant response rating, Pigweed” value [1, 19] was 90 and the “Plant response rating, Pigweed” value [1, 20] was 65. For the same compound, the “Plant response rating, Pigweed” value [1, 21] was 85, the “Plant response rating, Velvetleaf” value [2, 18] was 85 and the “Plant response rating, Velvetleaf” value [2, 19] was 90. For the same compound, the “Plant response rating, Velvetleaf” value [2, 20] was 35, the “Plant response rating, Velvetleaf” value [2, 21] was 65 and the “Plant response rating, Barnyardgrass” value [3, 18] was 0. The “Plant response rating, Barnyardgrass” value [3, 19] was 5, the “Plant response rating, Barnyardgrass” value [3, 20] was 0 and the “Plant response rating, Barnyardgrass” value [3, 21] was 15. For the same compound, the “Plant response rating, Foxtail, Giant” value [4, 18] was 0, the “Plant response rating, Foxtail, Giant” value [4, 19] was 55 and the “Plant response rating, Foxtail, Giant” value [4, 20] was 10. The “Plant response rating, Foxtail, Giant” value [4, 21] was 50, the “Plant response rating, Crabgrass” value [5, 18] was 20 and the “Plant response rating, Crabgrass” value [5, 19] was 40. The “Plant response rating, Crabgrass” value [5, 20] was 50, the “Plant response rating, Crabgrass” value [5, 21] was 75 and the “Plant response rating, Morningglory” value [6, 18] was 75. The “Plant response rating, Morningglory” value [6, 19] was 90, the “Plant response rating, Morningglory” value [6, 20] was 0 and the “Plant response rating, Morningglory” value [6, 21] was 0. For the same compound, the “Rice, Water Seeded plant response rating” value ([7]; 32 g ai/ha) was 0, the “Rice, Water Seeded plant response rating” value ([7]; 64 g ai/ha) was 0 and the “Rice, Water Seeded plant response rating” value ([7]; 125 g ai/ha) was 0. For the same compound, the “Rice, Water Seeded plant response rating” value ([7]; 250 g ai/ha) was 0, the “Plant response rating, Rice, Water Seeded” value ([7]; 16 g ai/ha) was 0 and the “Watergrass, Late plant response rating” value ([8]; 32 g ai/ha) was 0. For the same compound, the “Watergrass, Late plant response rating” value ([8]; 64 g ai/ha) was 0, the “Watergrass, Late plant response rating” value ([8]; 125 g ai/ha) was 0 and the “Watergrass, Late plant response rating” value ([8]; 250 g ai/ha) was 0. The “Plant response rating, Watergrass, Late” value ([8]; 16 g ai/ha) was 0, the “Watergrass, Early plant response rating” value ([9]; 32 g ai/ha) was 0 and the “Watergrass, Early plant response rating” value ([9]; 64 g ai/ha) was 0. The “Watergrass, Early plant response rating” value ([9]; 125 g ai/ha) was 0, the “Watergrass, Early plant response rating” value ([9]; 250 g ai/ha) was 0 and the “Plant response rating, Watergrass, Early” value ([9]; 16 g ai/ha) was 0. For the same compound, the “Junglerice plant response rating” value ([10]; 32 g ai/ha) was 0, the “Junglerice plant response rating” value ([10]; 64 g ai/ha) was 0 and the “Junglerice plant response rating” value ([10]; 125 g ai/ha) was 0. For the same compound, the “Junglerice plant response rating” value ([10]; 250 g ai/ha) was 0, the “Plant response rating, Junglerice” value ([10]; 16 g ai/ha) was 0 and the “Rice, Transplanted plant response rating” value ([11]; 32 g ai/ha) was 0. For the same compound, the “Rice, Transplanted plant response rating” value ([11]; 64 g ai/ha) was 0, the “Rice, Transplanted plant response rating” value ([11]; 125 g ai/ha) was 0 and the “Rice, Transplanted plant response rating” value ([11]; 250 g ai/ha) was 0. The “Plant response rating, Rice, Transplanted” value ([11]; 16 g ai/ha) was 0, the “Redstem plant response rating” value ([12]; 32 g ai/ha) was 0 and the “Redstem plant response rating” value ([12]; 64 g ai/ha) was 0. For the same compound, the “Redstem plant response rating” value ([12]; 125 g ai/ha) was 0, the “Redstem plant response rating” value ([12]; 250 g ai/ha) was 30 and the “Plant response rating, Redstem” value ([12]; 16 g ai/ha) was 0. For the same compound, the “Barnyardgrass plant response rating” value ([13]; 32 g ai/ha) was 0, the “Barnyardgrass plant response rating” value ([13]; 64 g ai/ha) was 0 and the “Barnyardgrass plant response rating” value ([13]; 125 g ai/ha) was 0. The “Plant response rating, Barnyardgrass” value ([13]; 16 g ai/ha) was 0, the “Sprangletop, Brdd. plant response rating” value ([14]; 32 g ai/ha) was 0 and the “Sprangletop, Brdd. plant response rating” value ([14]; 64 g ai/ha) was 0. The “Sprangletop, Brdd. plant response rating” value ([14]; 125 g ai/ha) was 0, the “Sprangletop, Brdd. plant response rating” value ([14]; 250 g ai/ha) was 0 and the “Plant response rating, Sprangletop, Brdd.” value ([14]; 16 g ai/ha) was 0. The “Sedge, Umbrella plant response rating” value ([15]; 32 g ai/ha) was 0, the “Sedge, Umbrella plant response rating” value ([15]; 64 g ai/ha) was 30 and the “Sedge, Umbrella plant response rating” value ([15]; 125 g ai/ha) was 90. The “Sedge, Umbrella plant response rating” value ([15]; 250 g ai/ha) was 100, the “Plant response rating, Sedge, Umbrella” value ([15]; 16 g ai/ha) was 0 and the “Ducksalad plant response rating” value ([16]; 32 g ai/ha) was 100. For the same compound, the “Ducksalad plant response rating” value ([16]; 64 g ai/ha) was 100, the “Ducksalad plant response rating” value ([16]; 125 g ai/ha) was 100 and the “Ducksalad plant response rating” value ([16]; 250 g ai/ha) was 100. For the same compound, the “Plant response rating, Ducksalad” value ([16]; 16 g ai/ha) was 95, the “Flatsedge, Rice plant response rating” value ([17]; 32 g ai/ha) was 70 and the “Flatsedge, Rice plant response rating” value ([17]; 64 g ai/ha) was 100. For the same compound, the “Flatsedge, Rice plant response rating” value ([17]; 125 g ai/ha) was 100, the “Flatsedge, Rice plant response rating” value ([17]; 250 g ai/ha) was 100 and the “Plant response rating, Flatsedge, Rice” value ([17]; 16 g ai/ha) was 65.

From patent US8802597B2, “Herbicidal pyrimidines” (E I du Pont de Nemours and Company, priority 2003, dated 2014)
